The nature of test [1]: carrageenin-induced edema in the hind paw of the rat (modified Winter et al.). It is filed as in vivo. The conditions noted are these: Rattus norvegicus, po, 3 h, 3 h; for inhibition in vivo at 50 mg/kg / inhibition in vivo at 25 mg/kg: Table I, oral, 1 h before carrageenin, read-out: Reduction % (carrageenin edema); for ED50: dose which reduced edema formation by about 25% or more vs mean control in 50% of the animals. As for the experimental part:
(§1) The procedure used for measuring the inhibition of carrageenin-induced edema is a slight modification of the method of Winter et al., Proc. Soc. Explt. Biol. Med. 111: 544 (1962). The device used for measurement of the paw volume is an adaptation of the water displacement procedure described by Adamkiewicz et al., Can. J. Biochem. Physiol. 33: 332 (1955). The above compounds were studied for their effectiveness in preventing the edema caused by the intraplantar injection of 0.05 ml of a sterile 1.0% solution of carrageenin. Compounds were administered orally, except when indicated as intraperitoneally (i.p.), one hour prior to the injection of the carrageenin into the left hind paw of rats. At peak swelling time (3 hours) the volume of edema was calculated by differential paw volumes.
Table I (in which Ph=phenyl) sets forth results obtained at the indicated dosages with compounds (or their salts) of the formula [drawing 8]
Following the procedure set forth in Example 4, hydrated compounds according to the following formula were evaluated for antiinflammatory effect with the results shown in Table II: [drawing 9]
Certain of the compounds of the invention were further tested to determine their ED50 values. […] Typical results of these tests appear in Table III.

A short description of test [2]: adrenalectomized assay (carrageenin edema in adrenalectomized rats). The test is classed as in vivo, Adrenalectomized Sprague Dawley Male Rats. The conditions noted are these: Rattus norvegicus, po, 3 h, read-out: % Reduction (adrenalectomized rats). As for the experimental part:
as §1
Next, certain of the compounds were subjected to a secondary screen designated the adrenalectomized assay. In this series of tests, the method used was identical to that described above, except that the animals used were adrenalectomized several days prior to assay. Since the results in the nonadrenalectomized animals were similar to those obtained in the adrenalectromized animals, it can be inferred that the antiinflammatory activity of the test compounds was not caused by the release of endogeneous adrenocortical steriods.
(In general: In the carrageenan paw model, swelling and tenderness develop within hours.)

A short description of test [3]: adjuvant-induced arthritis test (Newbould). It is filed as in vivo, rat. From the text:
Selected compounds were further subjected to advanced evaluations. Specifically, in view of the interesting activity of compounds 1 and 9, those compounds were further subjected to the adjuvant-induced arthritis test. This test requires one month (from day 0 to day 31). In the first seventeen days (0-17), the disease is in a developing stage, while for the remainder of the month (18-31) the disease is fully developed.
The method is essentially that of Newbould, Brit. J. Pharmacol. 21: 127, 1963. The test compounds were studied in the developing arthritis state and in the established arthritic state. Separate groups of twelve rats were administered the compounds orally using methylcellulose as the vehicle. In the study on the developing disease, administration of the test compounds begins on day 1 and on day 2 each animal is injected with 0.05 ml/kg of a 0.5% suspension of heat-killed Mycobacterium tuberculosis into the planter surface of the left hind paw. Foot volumes were measured by a water displacement device on the day of administration of the Mycobacterium and again on days 3, 10 and 17. The test compounds were administered once daily. Body weights were recorded daily and the animals were examined for the spread of the inflammation and the degree of secondary lesions. For study in the established disease, another group of rats are injected with the Mycobacterium and foot volumes are measured. After twenty days volumes are again measured and administration of the test compounds begins and continues for eleven days. Foot volume measurements are repeated on day 27 and day 31. The extent of the spread of the inflammation and the degree of lesions are recorded daily as are the body weights. The effect of the test compounds is measured by the percentage reduction in left hind paw volumes as compared to the hind paw volumes of the control groups.

What is called ED50 is the midpoint of the dose-response relation.

Structures can show the parent of a compound that is named as a salt.

`C1=C(c2ccccc2)N2CCN=C2S1` [Compound 1]: the values for the inhibition in vivo at 50 mg/kg in test [1] and in test [2] were 47% and 32%, respectively. The ED50 in test [1] is 25 mg/kg. For the same compound, the “% reduction in swelling, hind paws” value is listed as 18% in test [3] (20 mg/kg, day 3, developing (prophylactic)); 13% in test [3] (20 mg/kg, day 10, developing (prophylactic)); 18% in test [3] (20 mg/kg, day 17, developing (prophylactic)); 5% in test [3] (20 mg/kg, day 20, developed (therapeutic)); 0% in test [3] (20 mg/kg, day 27, developed (therapeutic)); 0% in test [3] (20 mg/kg, day 31, developed (therapeutic)). The “% reduction in swelling, hind paws” value is recorded as 10% in test [3] (40 mg/kg, day 3, developing (prophylactic)); 21% in test [3] (40 mg/kg, day 10, developing (prophylactic)); 43% in test [3] (40 mg/kg, day 17, developing (prophylactic)); 4% in test [3] (40 mg/kg, day 20, developed (therapeutic)); 14% in test [3] (40 mg/kg, day 27, developed (therapeutic)); 8% in test [3] (40 mg/kg, day 31, developed (therapeutic)).

Regarding `CCC1=C(c2ccccc2)N2CCN=C2S1` [Compound 4], the figures for the inhibition in vivo at 25 mg/kg in test [1] and in test [2] were 41% and 31%, respectively.

As to `CCC1=C(c2ccc(Cl)cc2)N2CCN=C2S1` [Compound 5], the inhibition in vivo at 25 mg/kg in test [1] is 33%; in test [2] it was 15%.

Turning to `CC1=C(c2ccc(Cl)cc2)N2CCN=C2S1` [Compound 6], the inhibition in vivo at 25 mg/kg in test [1] is 45%; in test [2], 19%.

Turning to `CC(C)(C)C1=CSC2=NCCN12` [Compound 8], in test [1], the inhibition in vivo at 50 mg/kg was 56%. The inhibition in vivo at 25 mg/kg in test [2] came out at 23%.

Take `CC1=CSC2=NCCN12` [Compound 9]: the inhibition in vivo at 50 mg/kg in test [1] worked out at 46%. This compound yielded an ED50 in test [1] of 20 mg/kg. Moreover, the inhibition in vivo at 25 mg/kg in test [2] worked out at 46%. The “% reduction in swelling, hind paws” value in test [3] (24 mg/kg, day 3, developing (prophylactic)) was determined as 21%; in test [3] (24 mg/kg, day 10, developing (prophylactic)), 23%; in test [3] (24 mg/kg, day 17, developing (prophylactic)), 15%; in test [3] (24 mg/kg, day 20, developed (therapeutic)), 5%; in test [3] (24 mg/kg, day 27, developed (therapeutic)) it was 0%; in test [3] (24 mg/kg, day 31, developed (therapeutic)) it was 0%. Moreover, the “% reduction in swelling, hind paws” value turned out to be 18% in test [3] (50 mg/kg, day 3, developing (prophylactic)); 17% in test [3] (50 mg/kg, day 10, developing (prophylactic)); 6% in test [3] (50 mg/kg, day 17, developing (prophylactic)); 3% in test [3] (50 mg/kg, day 20, developed (therapeutic)); 3% in test [3] (50 mg/kg, day 27, developed (therapeutic)); 7% in test [3] (50 mg/kg, day 31, developed (therapeutic)).

For `C1=C(c2cccc3ccccc23)N2CCN=C2S1` [Compound 10], the inhibition in vivo at 50 mg/kg was 58% in test [1] and 18% in test [2].

On to `CC1CN2C(c3ccc(Cl)cc3)=CSC2=N1` (stereo not shown) [Compound 16], for which the inhibition in vivo at 50 mg/kg in test [1] worked out at 58%; in test [2] it was 16%.

With `CC1CN2C(c3ccc([N+](=O)[O-])cc3)=CSC2=N1` (stereo not shown) [Compound 17], the inhibition in vivo at 50 mg/kg in test [1] stood at 48%; in test [2], 60%.

On to `CCC1=C(c2ccccc2)N2CCCN=C2S1` [Compound 29, 2-ethyl-3-phenyl-4,5,6,7-tetrahydrothiazole[3,2-a] pyrimidine hydrobromide], for which the inhibition in vivo at 50 mg/kg in test [1] came to 76%. In test [2], the inhibition in vivo at 25 mg/kg amounted to 18%.

The record behind these values is patent US4160768A, “Anti-inflammatory 3-benzofuranyl imidazothiazole” (Diamond Shamrock Corporation, priority 1978, dated 1979).
